From US6197798A, “Amino-benzocycloalkane derivatives” (Novartis AG, priority 1999, dated 2001)

Legend:
[1] = tested on: apolipoprotein B (Apo B) secretion, Hep G2 cells; test: inhibition of the cellular secretion of Apo B (Hep G2 cells, ELISA); assay type: cell-based; details: Homo sapiens, HepG2, 24 h, secreted Apo B by ELISA
Protocol: The inhibition of the cellular secretion of Apo B is determined as follows:
Hep G2 cells are maintained in T-75 culture flasks (Corning) in Dulbecco's modified Eagles Medium (DMEM; Gibco-BRL) supplemented with 10% fetal calf serum Gibco-BRL) in a humidified atmosphere containing 5% carbon dioxide until they are confluent. For testing compounds, Hep G2 cells from the T-75 maintenance flasks are harvested and seeded in 96-well culture plates (Corning) and are grown for 72 hours (approximately 80% confluent). Test compound is dissolved at 1 mg/ml (w/v;1-5 mM) in dimethyl sulfoxide DMSO; Sigma) as stock solution. Prior to use, the stock solution of compound is diluted to 133 μM with DMSO and diluted further with growth medium (DMEM containing 10% fetal calf serum) to obtain 1 μM of compound in 100 μL of growth medium. 100 μL of growth medium containing the test compound is added to separate wells of a 96-well culture plate containing Hep G2 cells. For testing dose response of compound, a stock solution of test compound in DMSO is made at 665 μM and various dilutions from this solution are made in growth medium to obtain range of concentration of compound from 0.01 μM to 5 μM in 100 μL of growth medium. 100 μL of the growth medium containing different concentrations of test compound is added to separate wells containing Hep G2 cells. Twenty-four hours later, growth medium is collected and assayed by specific ELISA for apolipoprotein B (Apo B). At the same time Hep G2 cells from wells are assayed for protein (BioRad; cat. # 500-0006) and/or cell viability (Promega; CellTiter 96 Aqueous, cat. # G3581). Inhibitors are identified as compounds that decrease Apo B secretion into the medium without decreasing the total cellular protein and/or cell viability. […] Absorbance of each well is read at 405 nm using a Beckman Biomek workstation. […]

[2] = molecular target: T1, rat MTP (microsomal triglyceride transfer protein) (Rattus norvegicus, UniProt D4A1W8); test: inhibition of MTP (triglyceride transfer from donor vesicles to acceptor vesicles); assay type: biochemical; details: soluble rat MTP, 37° C., 45 min, radiolabeled triglyceride transfer
T1 construct: homogenate (120 g/210 mL) of rat liver; from tissue; host or cells: rat liver microsomes, deoxycholate-released soluble protein
T1 sequence (D4A1W8 22-896): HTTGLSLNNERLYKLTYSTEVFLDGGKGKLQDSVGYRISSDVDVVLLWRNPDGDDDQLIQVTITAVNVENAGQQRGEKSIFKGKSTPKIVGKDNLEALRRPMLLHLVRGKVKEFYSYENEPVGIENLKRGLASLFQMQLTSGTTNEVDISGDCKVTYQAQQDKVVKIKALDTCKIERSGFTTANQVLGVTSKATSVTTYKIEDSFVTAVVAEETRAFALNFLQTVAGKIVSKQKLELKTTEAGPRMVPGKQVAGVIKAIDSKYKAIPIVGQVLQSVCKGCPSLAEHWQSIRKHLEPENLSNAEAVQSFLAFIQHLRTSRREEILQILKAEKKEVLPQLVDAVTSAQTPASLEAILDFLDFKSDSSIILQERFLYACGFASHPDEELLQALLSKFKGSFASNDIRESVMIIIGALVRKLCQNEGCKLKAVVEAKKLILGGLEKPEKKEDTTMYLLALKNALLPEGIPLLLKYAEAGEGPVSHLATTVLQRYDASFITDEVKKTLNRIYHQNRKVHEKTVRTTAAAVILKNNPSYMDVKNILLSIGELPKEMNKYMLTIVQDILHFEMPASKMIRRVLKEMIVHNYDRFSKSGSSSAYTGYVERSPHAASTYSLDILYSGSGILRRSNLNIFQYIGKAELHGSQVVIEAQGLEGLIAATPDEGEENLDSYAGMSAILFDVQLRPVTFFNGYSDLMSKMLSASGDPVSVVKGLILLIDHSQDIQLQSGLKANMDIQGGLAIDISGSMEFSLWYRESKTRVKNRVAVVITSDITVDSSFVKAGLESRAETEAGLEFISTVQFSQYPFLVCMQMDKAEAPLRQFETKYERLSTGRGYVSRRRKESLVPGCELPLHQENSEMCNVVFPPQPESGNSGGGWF
T1 sequence (P04785 20-509 partner): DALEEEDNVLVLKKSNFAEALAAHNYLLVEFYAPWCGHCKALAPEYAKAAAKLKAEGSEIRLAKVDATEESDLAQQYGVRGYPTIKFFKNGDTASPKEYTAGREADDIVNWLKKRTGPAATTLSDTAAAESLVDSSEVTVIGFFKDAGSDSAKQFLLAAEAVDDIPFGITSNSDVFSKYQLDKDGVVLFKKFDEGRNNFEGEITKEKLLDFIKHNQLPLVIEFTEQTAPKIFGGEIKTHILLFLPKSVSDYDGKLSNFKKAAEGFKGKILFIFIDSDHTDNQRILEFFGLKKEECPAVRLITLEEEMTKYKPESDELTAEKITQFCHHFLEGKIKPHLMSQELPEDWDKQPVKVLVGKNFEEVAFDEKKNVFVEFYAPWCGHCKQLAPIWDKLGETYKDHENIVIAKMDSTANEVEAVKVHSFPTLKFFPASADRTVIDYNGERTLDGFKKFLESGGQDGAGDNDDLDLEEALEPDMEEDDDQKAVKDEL
Protocol: The inhibition of MTP is measured as follows:
Inhibition of the lipid transfer activity of MTP can be quantitated by measuring the inhibition of transfer of radiolabeled triglyceride from donor vesicles to acceptor vesicles in presence of soluble rat MTP. The procedure for preparing MTP is based on the method of Wetterau and Zilversmit (Biochim. Biophys. Acta (1986) 875:610). Briefly rats are decapitated under ether anesthesia. The liver is placed in ice cold sucrose buffer (contains 0.25M sucrose, 50 mM Tris Hcl, 1 mM EDTA, 0.02% sodium azide, pH 7.4) rinsed several times with the sucrose buffer.
All subsequent steps are performed on ice. A 57% homogenate (120 g/210 mL) of rat liver in 0.25 M sucrose buffer is prepared by using a Potter-Elvehjem homogenizer. The homogenate is then centrifuged at 4° C. for 30 min at 13,000×g to remove large cellular organells. The supernatant is then centrifuged for 90 min at 105,000×g to pellet the microsomes. The pellet is resuspended in 10 mM Tris-HCl buffer pH 8.6. and centrifuged for 90 min at 105,000×g. The washed pellet is then resuspended in 1 mM Tris buffer (pH 8.6) and centrifuged for 2 hrs. […] The protein content is measured using the Sigma Lowry micro total protein method and reagents (Sigma Cat. # 690A). […]
MTP activity is measured using a MTP transfer assay. […]

[3] = in vivo triglyceride lowering effect; details: 10 mg/kg p.o.
Text: The in vivo serum triglyceride lowering effect of the compounds of the invention can be determined by measuring their effect on triglyceride levels in mice, rats or dogs according to methodology well known in the art, e.g., in a model of pre-established hypertriglyceridemia in fructose fed rats or in normolipidemic rats.

[4] = in vivo cholesterol lowering effect; details: 10 mg/kg p.o.
Text: The in vivo serum cholesterol lowering effect of the compounds of the invention can be determined by measuring their effect on cholesterol levels in mice, rats or dogs according to methodology well known in the art, e.g., in normolipidemic rats.

Row | IC50 [1] [nM] | IC50 [2] [nM] | Structure (SMILES) | lowers plasma triglycerides [3] | lowers plasma cholesterol [4]
1 | ~1.8 | ~60 | Cc1cccc(C(=O)Nc2ccc3c(c2)C[C@@H](NS(C)(=O)=O)C3)c1-c1ccc(C(F)(F)F)cc1 [Example 13b] |  | 
2 | ~3 |  | CS(=O)(=O)N[C@@H]1Cc2ccc(NC(=O)c3cc(F)ccc3-c3ccc(C(F)(F)F)cc3)cc2C1 [13(al)] |  | 
3 | ~0.7 | ~70 | COC(=O)N[C@@H]1Cc2ccc(NC(=O)c3cccc(C)c3-c3ccc(C(F)(F)F)cc3)cc2C1 [13(i), (R)-6-methyl-4'-trifluoromethylbiphenyl-2-carboxylic acid (2-methoxycarbonylaminoindan-5-yl)-amide] | lowers both plasma triglycerides and cholesterol | lowers both plasma triglycerides and cholesterol
